The source of these data is PMC6259918, “Antitrypanosomal Activity of Novel Benzaldehyde-Thiosemicarbazone Derivatives from Kaurenoic Acid ^†” (Molecules, 2011).

Like-named read-outs stand apart in the source and are kept apart here.

In data set [1] the test system is epimastigote forms of T. cruzi (Y strain). Nature of the data set: Antitrypanosomal assay. Type of data set: cell-based, Trypanosoma cruzi. As to conditions: for SI (selectivity index): SI: CC50 LLMCK2 / IC50 epimastigote; for IC50: mean ± SD. The method, then:
Stock solutions of the synthetic compounds and kaurenoic acid (5, 10, 50, and 100 µg/mL) were prepared in dimethylsulfoxide with their final concentrations not exceeding 1.0%. For the assay, epimastigote forms of T. cruzi (Y strain) were harvested during the exponential phase of growth, resuspended in liver infusion tryptose broth supplemented with 10% inactivated fetal bovine serum (Gibco Invitrogen Corporation, New York, NY, USA) and plated on 24-well plates at a concentration of 1 × 10^6 cells/mL. One milliliter of diluted compounds were included in each well and incubated for 96 h at 28 °C. Cell density was determined by counting the parasites in a hemocytometer chamber (Improved Double Neubauer) under a light microscope. All assays were carried out twice, in duplicate, on separate occasions.

The nature of data set [2]: Cytotoxicity assay (sulforhodamine B). Type of data set: cell-based. As to conditions: rhesus monkey, LLMCK2 cells, 96 h incubation, mean ± SD. The method, then:
The cytotoxic effect was evaluated against LLMCK2 cells in 96-well plates. A suspension of 2.5 × 10^4 cells was added to each well and left to grow as a monolayer for 24 h at 37 °C in a 5% CO2/air mixture. After this period, different concentrations of the synthetic compounds and kaurenoic acid (10 to 100 µg/mL) were added to the wells, and the plate was incubated for 96 h under the same conditions described above. The cells were fixed in 10% trichloroacetic acid at 4 °C for 1 h, washed five times with distilled water, and allowed to dry at room temperature. A solution of 4% sulforhodamine B (in 1% acetic acid) was added to each well, and the plate was kept protected from light for 30 min at 4 °C. The wells were then washed four times with 1% acetic acid, an aliquot (150 µL) of 10 mM Tris-base was added, and the aliquot was homogenized for 15 min. The absorbance was read at 530 nm in a microplate spectrophotometer, and data were calculated as the percentage of inhibition of growth. A concentration for 50% cellular toxicity (CC50) was defined as the concentration that reduced the optic density of treated cells by 50% relative to untreated cells.

Setting [3] is: Trypanosoma cruzi, 96 h, epimastigote form of T. cruzi Y strain, 96 h at 28 °C, parasite counting, read-out: Epimastigote IC50.

Consider `C=C1C[C@@]23CC[C@H]4[C@@](C)(CCC[C@@]4(C)C(=O)O)[C@@H]2CC[C@@H]1C3` [compound 1, ent-kaur-16-en-19-oic acid, reference compound], for which the “SI (selectivity index)” value in data set [1] came to 0.6. The IC50 (as a rule, the midpoint of a concentration-inhibition curve) in data set [1] (setting [3]) stood at 102 µM. The midpoint of cytotoxicity in data set [2], the CC50, lay at 59.5 ± 0.1 µM.

For `C[C@@]12CCC[C@@](C)(C(=O)O)[C@H]1CC[C@@]13C[C@@H](CC[C@H]12)[C@](C)(N=C=S)C3` [compound 2, ent-Kauren-16α-isothiocyane-16β-methyl-19-oic acid], the melting point (commonly the temperature, or range, at which the solid turns liquid) came to 174 °C. In addition, the “SI (selectivity index)” value in data set [1] came out at 0.9. The IC50 in data set [1] (Trypanosoma cruzi, 96 h, read-out: Epimastigote IC50, epimastigote form of T. cruzi Y strain, 96 h at 28 °C, parasite counting) was 58.4 µM. For the same compound, in data set [1] (read-out: Epimastigote IC50, epimastigote form of T. cruzi Y strain, 96 h at 28 °C, parasite counting), the IC50 stood at 58.2 ± 0.2 µM. Also, the CC50 (commonly the concentration at which the toxic effect on the cells reaches its halfway point) at 96 h in data set [2] stood at 52 ± 0.3 µM.

In turn, `C[C@@]12CCC[C@@](C)(C(=O)O)[C@H]1CC[C@@]13C[C@@H](CC[C@H]12)[C@](C)(SC#N)C3` [compound 3, ent-Kauren-16α-thiocyane-16β-methyl-19-oic acid] returned a melting point of 165 °C. In addition, in data set [1] (setting [3]), the IC50 is 43.7 µM. Moreover, in data set [1] (epimastigote form of T. cruzi Y strain, 96 h at 28 °C, parasite counting, read-out: Epimastigote IC50), the IC50 was determined as 43.4 ± 5.6 µM. Besides, the CC50 at 96 h in data set [2] was determined as 103.4 ± 0.7 µM.

Consider `C[C@@]12CCC[C@@](C)(C(=O)O)[C@H]1CC[C@@]13C[C@@H](CC[C@H]12)[C@](C)(NC(=S)NN)C3` [compound 4, N4-[ent-Kauren-16β-methyl-19-oic acid]-thiosemicarbazide], for which the melting point was found to be 131 °C. For the same compound, in data set [1], the “SI (selectivity index)” value turned out to be 0.7. Besides, the concentration for half-maximal inhibition (IC50) in data set [1] (setting [3]) turned out to be 107 ± 13 µM. The CC50 at 96 h in data set [2] came to 71.4 ± 0.7 µM.

Take `C[C@@]12CCC[C@@](C)(C(=O)O)[C@H]1CC[C@@]13C[C@@H](CC[C@H]12)[C@](C)(NC(=S)N/N=C/c1ccccc1)C3` [compound 5, N1-(E)-Phenyl-N4-[ent-kauren-16β-methyl-19-oic acid]-thiosemicarbazone]: the melting point was determined as 202 °C. In addition, the “SI (selectivity index)” value in data set [1] came to 0.5. Further, the IC50 in data set [1] (setting [3]) amounted to 68.2 ± 11.2 µM. The compound further yielded a CC50 at 96 h in data set [2] of 31.1 ± 1 µM.

For `Cc1ccc(/C=N/NC(=S)N[C@]2(C)C[C@@]34CC[C@H]5[C@@](C)(CCC[C@@]5(C)C(=O)O)[C@@H]3CC[C@@H]2C4)cc1` [compound 6, N1-(E)-[4-Methylphenyl]-N4-[ent-kauren-16β-methyl-19-oic acid]-thiosemicarbazone], the melting point was found to be 223 °C. In data set [1] (setting [3]), the IC50 is 23.4 ± 7.7 µM. In data set [2], this compound registered a CC50 at 96 h of 122.4 ± 1 µM.

The compound `COc1ccc(/C=N/NC(=S)N[C@]2(C)C[C@@]34CC[C@H]5[C@@](C)(CCC[C@@]5(C)C(=O)O)[C@@H]3CC[C@@H]2C4)cc1` [compound 7, N1-(E)-[4-Methoxyphenyl]-N4-[ent-kauren-16β-methyl-19-oic acid]-thiosemicarbazone] gave a melting point of 214.5 °C. The IC50 in data set [1] (setting [3]) is 16 ± 4.4 µM. This compound returned a CC50 at 96 h in data set [2] of 78.2 µM.

On to `C[C@@]12CCC[C@@](C)(C(=O)O)[C@H]1CC[C@@]13C[C@@H](CC[C@H]12)[C@](C)(NC(=S)N/N=C/c1ccc(O)cc1)C3` [compound 8, N1-(E)-[4-Hydroxyphenyl]-N4-[ent-kauren-16β-methyl-19-oic acid]-thiosemicarbazone], for which the melting point amounted to 191.5 °C. Further, the half-maximal inhibitory concentration (IC50) in data set [1] (setting [3]) worked out at 18.3 ± 4 µM. In data set [2], half-maximal cytotoxicity (CC50 at 96 h) was put at 29.5 ± 0.8 µM.

In turn, `CN(C)c1ccc(/C=N/NC(=S)N[C@]2(C)C[C@@]34CC[C@H]5[C@@](C)(CCC[C@@]5(C)C(=O)O)[C@@H]3CC[C@@H]2C4)cc1` [compound 9, N1-(E)-[4-Dimethylaminophenyl]-N4-[ent-kauren-16β-methyl-19-oic acid]-thiosemicarbazone] had a melting point of 231 °C. Besides, the IC50 in data set [1] (setting [3]) was found to be 79.5 ± 17.9 µM. This compound also yielded a CC50 at 96 h in data set [2] of 248.5 ± 0.6 µM.

Consider `C[C@@]12CCC[C@@](C)(C(=O)O)[C@H]1CC[C@@]13C[C@@H](CC[C@H]12)[C@](C)(NC(=S)N/N=C/c1ccccc1[N+](=O)[O-])C3` [compound 10, N1-(E)-[2-Nitrophenyl]-N4-[ent-kauren-16β-methyl-19-oic acid]-thiosemicarbazone], for which the melting point amounted to 211 °C. The IC50 in data set [1] (setting [3]) came out at 2 ± 1.1 µM. In data set [2], this compound gave a CC50 at 96 h of 17.1 ± 0.1 µM.

In the case of `C[C@@]12CCC[C@@](C)(C(=O)O)[C@H]1CC[C@@]13C[C@@H](CC[C@H]12)[C@](C)(NC(=S)N/N=C/c1cccc([N+](=O)[O-])c1)C3` [compound 11, N1-(E)-[3-Nitrophenyl]-N4-[ent-kauren-16β-methyl-19-oic acid]-thiosemicarbazone], the melting point came to 217 °C. For the same compound, in data set [1] (setting [3]), the IC50 is 19 µM. Moreover, in data set [2], half-maximal cytotoxicity (CC50 at 96 h) was put at 104.8 ± 0.4 µM.

Turning to `C[C@@]12CCC[C@@](C)(C(=O)O)[C@H]1CC[C@@]13C[C@@H](CC[C@H]12)[C@](C)(NC(=S)N/N=C/c1ccc([N+](=O)[O-])cc1)C3` [compound 12, N1-(E)-[4-Nitrophenyl]-N4-[ent-kauren-16β-methyl-19-oic acid]-thiosemicarbazone], the melting point stood at 219.5 °C. In addition, the “SI (selectivity index)” value in data set [1] was found to be 0.1. Moreover, the half-inhibitory concentration (IC50) in data set [1] (setting [3]) worked out at 117 ± 12.8 µM. In data set [2], this compound gave a CC50 at 96 h of 15.2 µM.

`C[C@@]12CCC[C@@](C)(C(=O)O)[C@H]1CC[C@@]13C[C@@H](CC[C@H]12)[C@](C)(NC(=S)N/N=C/c1ccccc1Cl)C3` [compound 13, N1-(E)-[2-Chlorophenyl]-N4-[ent-kauren-16β-methyl-19-oic acid]-thiosemicarbazone] had a melting point of 202.5 °C. Besides, the IC50 in data set [1] (setting [3]) was determined as 39.4 ± 14.3 µM. Moreover, the CC50 at 96 h in data set [2] came out at 364 ± 11.3 µM.

With `C[C@@]12CCC[C@@](C)(C(=O)O)[C@H]1CC[C@@]13C[C@@H](CC[C@H]12)[C@](C)(NC(=S)N/N=C/c1cccc(Cl)c1)C3` [compound 14, N1-(E)-[3-Chlorophenyl]-N4-[ent-kauren-16β-methyl-19-oic acid]-thiosemicarbazone], the melting point came out at 207 °C. Besides, the half-inhibitory concentration (IC50) in data set [1] (setting [3]) is 23.5 ± 7 µM. Further, the midpoint of cytotoxicity in data set [2], the CC50 at 96 h, lay at 56.2 ± 0.4 µM.

As for `C[C@@]12CCC[C@@](C)(C(=O)O)[C@H]1CC[C@@]13C[C@@H](CC[C@H]12)[C@](C)(NC(=S)N/N=C/c1ccc(Cl)cc1)C3` [compound 15, N1-(E)-[4-Chlorophenyl]-N4-[ent-kauren-16β-methyl-19-oic acid]-thiosemicarbazone], the melting point amounted to 223.5 °C. Further, the IC50 in data set [1] (setting [3]) was found to be 14.9 ± 0.3 µM. The midpoint of cytotoxicity in data set [2], the CC50 at 96 h, lay at 28.7 ± 1.1 µM.
